Laboratory results from PubChem BioAssay AID248 (DTP/NCI, 2004).
“And” between values parts separate entries of the source, which are not always exact repeats. Equal entries are not always repeated. Inconclusive results and toxic doses are left out. No stated cut-off is given here; in the data, active means T/C of 150% or more; inactive means T/C below 125%.

Test system: L1210 leukemia ip in BDF1 mice, survival T/C
Assay: NCI In Vivo Anticancer Drug Screen. Data for tumor model L1210 Leukemia (intraperitoneal) in B6D2F1 (BDF1) mice
Conditions: endpoint: mean survival time, higher = longer survival
How it was run: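 Each compound was tested against a transplantable tumor grown in mice. The endpoint was survival, with treated animals benchmarked against vehicle controls as a simple ratio.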

[1] = dose: 100.0 mg/kg/injection, schedule: Q04DX002 (ip), vehicle: Klucel (hydroxypropylcellulose) (HPC)
[2] = dose: 200.0 mg/kg/injection, schedule: Q04DX002 (ip), vehicle: Klucel (hydroxypropylcellulose) (HPC)
[3] = dose: 100.0 mg/kg/injection, schedule: Q01DX001 (ip), vehicle: saline
[4] = dose: 200.0 mg/kg/injection, schedule: Q01DX001 (ip), vehicle: saline
[5] = dose: 400.0 mg/kg/injection, schedule: Q01DX001 (ip), vehicle: saline
[6] = dose: 100.0 mg/kg/injection, schedule: Q01DX009 (ip), vehicle: Klucel (hydroxypropylcellulose) (HPC)
[7] = dose: 200.0 mg/kg/injection, schedule: Q01DX009 (ip), vehicle: Klucel (hydroxypropylcellulose) (HPC)
[8] = dose: 400.0 mg/kg/injection, schedule: Q01DX009 (ip), vehicle: Klucel (hydroxypropylcellulose) (HPC)
[9] = dose: 25.0 mg/kg/injection, schedule: Q01DX009 (ip), vehicle: saline with Tween-80
[10] = dose: 50.0 mg/kg/injection, schedule: Q01DX009 (ip), vehicle: saline with Tween-80
[11] = dose: 100.0 mg/kg/injection, schedule: Q04DX002 (ip), vehicle: saline with Tween-80
[12] = dose: 50.0 mg/kg/injection, schedule: Q01DX001 (ip), vehicle: saline
[13] = dose: 100.0 mg/kg/injection, schedule: Q04DX003 (ip), vehicle: Klucel (hydroxypropylcellulose) (HPC)
[14] = dose: 200.0 mg/kg/injection, schedule: Q04DX003 (ip), vehicle: Klucel (hydroxypropylcellulose) (HPC)
[15] = dose: 400.0 mg/kg/injection, schedule: Q04DX003 (ip), vehicle: Klucel (hydroxypropylcellulose) (HPC)
[16] = dose: 12.5 mg/kg/injection, schedule: Q01DX009 (ip), vehicle: Klucel (hydroxypropylcellulose) (HPC)
[17] = dose: 25.0 mg/kg/injection, schedule: Q01DX009 (ip), vehicle: Klucel (hydroxypropylcellulose) (HPC)
[18] = dose: 100.0 mg/kg/injection, schedule: Q01DX009 (ip), vehicle: saline with Tween-80
[19] = dose: 100.0 mg/kg/injection, schedule: Q04DX003 (ip), vehicle: saline with Tween-80
[20] = dose: 200.0 mg/kg/injection, schedule: Q01DX009 (ip), vehicle: saline with Tween-80
[21] = dose: 200.0 mg/kg/injection, schedule: Q04DX002 (ip), vehicle: saline with Tween-80
[22] = dose: 200.0 mg/kg/injection, schedule: Q04DX003 (ip), vehicle: saline with Tween-80
[23] = dose: 400.0 mg/kg/injection, schedule: Q01DX009 (ip), vehicle: saline with Tween-80
[24] = dose: 400.0 mg/kg/injection, schedule: Q04DX002 (ip), vehicle: saline with Tween-80
[25] = dose: 400.0 mg/kg/injection, schedule: Q04DX003 (ip), vehicle: saline with Tween-80
[26] = dose: 50.0 mg/kg/injection, schedule: Q01DX009 (ip), vehicle: Klucel (hydroxypropylcellulose) (HPC)

Measured: T/C

CC(=O)Nc1ccc(/C=C2N=C(/C=C/c3ccccc3)OC\2=O)cc1
inactive: [1] 94 % of control | [2] 105 % of control | dose: 400.0 mg/kg/injection, schedule: Q04DX002 (ip), vehicle: Klucel (hydroxypropylcellulose) (HPC) 90 % of control

CS(=O)(=O)C(=O)O
inactive: [3] 96 % of control | [4] 101 % of control | [5] 98 % of control

Cc1ccc(N2C=Nc3ccc(C)cc3C2)cc1
inactive: [6] 92 % of control | dose: 100.0 mg/kg/injection, schedule: Q04DX003 (ip), vehicle: other 107 % of control | [7] 104 % of control | dose: 200.0 mg/kg/injection, schedule: Q04DX003 (ip), vehicle: other 90 % of control

CN1CCc2[nH]c3ccccc3c2C1
inactive: dose: 75.0 mg/kg/injection, schedule: Q04DX003 (ip), vehicle: Klucel (hydroxypropylcellulose) (HPC) 93 % of control | dose: 150.0 mg/kg/injection, schedule: Q04DX003 (ip), vehicle: Klucel (hydroxypropylcellulose) (HPC) 93 % of control

CCC[CH2][Sn]([Cl])([CH2]CCC)[S]C(=S)NCCNC(=S)[S][Sn]([Cl])([CH2]CCC)[CH2]CCC
inactive: dose: 6.0 mg/kg/injection, schedule: Q04DX002 (ip), vehicle: other 98 % of control | dose: 12.0 mg/kg/injection, schedule: Q04DX002 (ip), vehicle: other 117 % of control | dose: 25.0 mg/kg/injection, schedule: Q04DX002 (ip), vehicle: other 102 % of control

O=C(Nc1ccccc1C(=O)N/N=C/CCc1ccccc1)c1ccccc1Cl
inactive: [6] 101 % of control | [7] 97 % of control | [8] 92 % of control

CC(=O)NCc1cccc([N+](=O)[O-])c1
inactive: dose: 25.0 mg/kg/injection, schedule: Q01DX005 (ip), vehicle: saline 111 % of control | dose: 100.0 mg/kg/injection, schedule: Q01DX005 (ip), vehicle: saline 102 % of control

CCCC(=O)CCN(C)Cc1ccccc1
inactive: [3] 103 % of control

CCOP(=O)(CSc1ccccc1)OCC
inactive: [9] 93 % of control | dose: 25.0 mg/kg/injection, schedule: Q04DX002 (ip), vehicle: saline with Tween-80 107 % of control | [10] 100 % of control | dose: 50.0 mg/kg/injection, schedule: Q04DX002 (ip), vehicle: saline with Tween-80 107 % of control | [11] 86 % of control

COc1cc(-c2ccc(Nc3ccccc3C(=O)O)c(OC)c2)ccc1N
inactive: dose: 15.0 mg/kg/injection, schedule: Q01DX Z (ip), vehicle: carboxymethylcellulose (CMC) 102 % of control | dose: 22.0 mg/kg/injection, schedule: Q01DX Z (ip), vehicle: carboxymethylcellulose (CMC) 117 % of control | dose: 23.0 mg/kg/injection, schedule: Q01DX Z (ip), vehicle: carboxymethylcellulose (CMC) 112 % of control | dose: 35.0 mg/kg/injection, schedule: Q01DX Z (ip), vehicle: carboxymethylcellulose (CMC) 111 % of control and 121 % of control | [12] 121 % of control | [3] 115 % of control | [4] 114 % of control

O=C1CCCc2c1ccc1ccccc21
inactive: [6] 97 % of control | [13] 101 % of control | [14] 103 % of control | [8] 100 % of control | [15] 100 % of control

CCOC(=O)Nc1cc(N)c2nnn(C(c3ccccc3)c3ccccc3)c2n1
inactive: [13] 92 % of control | [14] 91 % of control | [15] 91 % of control

CN(C=O)C(=S)[S][Sb]([S]C(=S)N(C)C=O)[S]c1nc2ccc(N=Nc3ccc(NS(=O)(=O)c4ccc(NC(=O)C(Cl)Cl)cc4)cc3)cc2s1
inactive: dose: 100.0 mg/kg/injection, schedule: Q01DX001 (ip), vehicle: steriod suspending solution 101 % of control

O[C@H](c1cc(C(F)(F)F)nc2c(C(F)(F)F)cccc12)[C@@H]1CCCCN1
inactive: [16] 94 % of control | dose: 12.5 mg/kg/injection, schedule: Q04DX003 (ip), vehicle: saline 98 % of control | [17] 103 % of control | dose: 25.0 mg/kg/injection, schedule: Q04DX003 (ip), vehicle: saline 98 % of control | dose: 50.0 mg/kg/injection, schedule: Q04DX003 (ip), vehicle: saline 97 % of control

CN(C)P(N(C)C)N(C)C
inactive: [12] 104 % of control | [3] 95 % of control | [4] 93 % of control | [5] 101 % of control

CC[n+]1cccc2ccccc21
inactive: [3] 97 % of control

O=C(Nc1cccc2ccccc12)OCc1ccco1
inactive: dose: 100.0 mg/kg/injection, schedule: Q01DX001 (ip), vehicle: saline with Tween-80 96 % of control | [18] 93 % of control and 96 % of control | [11] 96 % of control and 118 % of control | [19] 105 % of control | dose: 200.0 mg/kg/injection, schedule: Q01DX001 (ip), vehicle: saline with Tween-80 97 % of control | [20] 100 % of control and 86 % of control | [21] 96 % of control and 91 % of control | [22] 100 % of control | dose: 400.0 mg/kg/injection, schedule: Q01DX001 (ip), vehicle: saline with Tween-80 103 % of control | [23] 93 % of control and 94 % of control | [24] 104 % of control | [25] 103 % of control

COC(=O)CCCCCCCCC(C)c1ccccc1 (centres undefined)
inactive: [6] 98 % of control | dose: 100.0 mg/kg/injection, schedule: Q04DX003 (ip), vehicle: saline 103 % of control | [7] 92 % of control | dose: 200.0 mg/kg/injection, schedule: Q04DX003 (ip), vehicle: saline 89 % of control | [8] 97 % of control | dose: 400.0 mg/kg/injection, schedule: Q04DX003 (ip), vehicle: saline 92 % of control

NC(=O)c1cccc([N+](=O)[O-])c1Br
inactive: [13] 103 % of control | [14] 98 % of control

O=C(O)C(=O)Nc1ncn[nH]1
inactive: dose: 6.25 mg/kg/injection, schedule: Q01DX009 (ip), vehicle: Klucel (hydroxypropylcellulose) (HPC) 104 % of control | dose: 12.5 mg/kg/injection, schedule: Q01DX005 (ip), vehicle: Klucel (hydroxypropylcellulose) (HPC) 102 % of control | [16] 96 % of control and 104 % of control | [17] 100 % of control and 104 % of control | dose: 50.0 mg/kg/injection, schedule: Q01DX005 (ip), vehicle: Klucel (hydroxypropylcellulose) (HPC) 105 % of control and 106 % of control | [26] 107 % of control and 114 % of control | [1] 96 % of control | [2] 98 % of control

CC1([N+](=O)[O-])COP(=O)(Nc2ccccc2F)OC1 (centres undefined)
inactive: dose: 100.0 mg/kg/injection, schedule: Q01DX001 (ip), vehicle: carboxymethylcellulose (CMC) 101 % of control | dose: 200.0 mg/kg/injection, schedule: Q01DX001 (ip), vehicle: carboxymethylcellulose (CMC) 95 % of control | dose: 400.0 mg/kg/injection, schedule: Q01DX001 (ip), vehicle: carboxymethylcellulose (CMC) 104 % of control

S=C(NCN1CCNCC1)C(=S)NCN1CCNCC1
inactive: [16] 97 % of control | [17] 100 % of control | [26] 93 % of control

COc1ccc([N+](=O)[O-])cc1C(F)(F)F
inactive: [18] 96 % of control | [20] 97 % of control | [23] 93 % of control

NC(=O)CN1C(=O)C2C3CCC(C3)C2C1=O (centres undefined)
inactive: [19] 107 % of control | [22] 107 % of control | [25] 107 % of control

Cc1cc(C2=NCC(C)(C)S2)ccc1O
inactive: dose: 25.0 mg/kg/injection, schedule: Q01DX005 (ip), vehicle: saline with Tween-80 92 % of control | [9] 91 % of control | dose: 50.0 mg/kg/injection, schedule: Q01DX005 (ip), vehicle: saline with Tween-80 92 % of control | [10] 98 % of control | dose: 100.0 mg/kg/injection, schedule: Q01DX005 (ip), vehicle: saline with Tween-80 93 % of control and 105 % of control | [18] 98 % of control | [11] 100 % of control | [21] 96 % of control | [24] 88 % of control

CC(=O)COc1cccc(Cl)c1
inactive: [13] 104 % of control | [14] 98 % of control | [15] 97 % of control
